From patent publication US20200283728A1, “MODIFIED T CELLS AND USES THEREOF” (MUSC FOUNDATION FOR RESEARCH DEVELOPMENT, priority 2017, published 2020)

Columns and labels:
Format in all cases: cell-based, mouse
Wnt/β-catenin pathway = Wnt/β-catenin pathway expression in Th17 cells (Western blot, real-time PCR)
Experimental: Total RNA isolation was performed using the Trizol method (Life Technologies) according to the manufacturer's procedure. RNA quantity and purity was assessed using a NanoDrop ND-1000. 1 μg total RNA was transcribed with Transcriptor First Strand cDNA Synthesis Kit (Roche). qReal-time PCR was performed on LightCycler480 machine following manufacturer's protocols (Roche). Probes utilized include Rorc, IL-17, Cmaf IL-21, Cpt-1a, Tcf-7, Lef-1, Cnnb1. All probes are commercially available (ABI). Relative gene expression was determined by the comparative CT method (45). β-actin was used as housekeeping gene.
Nuclear and cytoplasmic protein were isolated by lysis using Nuclear and Cytoplasmic Extraction Reagent with Protease&Phosphatase Inhibitor Cocktail (ThermoScientific). Protein concentration was quantified using […] (ThermoScientific) according to the manufacturer's instructions. 10 to 30 μg of total protein was separated on a Mini-PROTEAN TGX, Any kD™ gel, followed by transfer onto PVDF membrane (Bio-Rad). The membranes were blocked with 5% BSA in TBS buffer containing 0.5% Tween20. The membranes were then incubated overnight at 4° C. with the primary antibodies to β-catenin (BD Bioscience), p110δ, Tcf7 (Abcam), RORγt (Affymetrix) phospho-Akt, total-Akt, STAT-3, Histone-3, Lef1 (abcam), and GAPDH (Cell Signaling) at the concentration recommended by manufactures. Subsequently, membranes were washed and incubated for 1 h at room temperature with (HRP)-conjugated goat antibodies to mouse or rabbit IgG (Cell Signaling). For detection of protein, chemiluminescence method was performed using Western ECL Blotting Substrate (Bio-Rad) followed by X-ray film-based imaging method (ThermoScientific). Quantification of optical density performed using Fiji analysis software (NIH).

[1] = test system: ICOS-stimulated Th17 cells; assay: Growth and survival of ICOS-stimulated Th17 cells expanded with inhibitors; details: in vitro expansion, day 7
Experimental: Expansion of Th17 cells with Wnt/β-catenin and PI3K inhibitors in vitro: […] splenocytes were activated with irradiated (10Gy) C57BL/6 splenocytes pulsed with […] peptide (1 μM) added at a 5:1 ratio in 24-well plates (1 mL media containing 1.5×10^6 cells/well). […] splenocytes were co-stimulated with soluble ICOS agonist (Clone 398.4A, BioLegend) and polarized toward Th17 phenotype as describe above. For in vitro expansion from day 0 of culture 10 μM Ly294002 (Cayman Chemical) or 10 μM CAL-101 (Selleckchem) and/or 60 μM indomethacin (Sigma-Aldrich) was added. Also dimethylosulfoxide 0.01% (Sigma-Aldrich) was added as a control. Th17 cultures were also supplemented with hrIL-2 (100 IU/mL) and rmIL-23 ([…]; R&D). Medium, including cytokines and inhibitors was refreshed every 2-3 days.

[2] = test system: ICOS activated Th17 cells; assay: Cytokine production of inhibitor-primed Th17 cells after secondary re-stimulation in vitro (ELISA); details: vs untreated or CAL-101-treated Th17 cells
Excerpt: FIG. 11: Re-stimulation of ICOS activated Th17 cells in vitro restores their cytokine production after initial inhibition of PI3K/p110δ and Wnt/β-catenin signaling pathways. ELISA analysis of cytokine production 72 hrs after secondary re-stimulation in vitro using splenocytes pulsed with trp-1 peptide (5:1 ratio), PMA/Ionomycin or B16F10 cancer cells of ICOS stimulated Th17 cells expanded with inhibitors as indicated. Data represent mean±SEM of at least three independent experiments.
Cytokine levels were measured using the mouse IL-17A, INF-γ, IL-2, IL-9, IL-10, IL-21, IL-22, CCL-20, GM-CSF ELISA kits (R&D) following the manufacturer's protocol.

COc1ccc2c(c1)c(CC(=O)O)c(C)n2C(=O)c1ccc(Cl)cc1 [Indo, indomethacin]
nuclear β-catenin after re-stimulation (Wnt/β-catenin pathway; antigen specific re-stimulation in vitro): re-expressed β-catenin to the level observed in un-treated ICOS stimulated Th17 cells
nuclear β-catenin expression (Wnt/β-catenin pathway; day 8, before re-stimulation / transfer): abolish β-catenin translocation to the nucleus
Th17 cell growth or survival [1]: did not impair
IL-2 secretion after peptide re-stimulation [2]: significantly more
